The values that follow come from patent publication US7262197B2, “Phospholipase C inhibitors for use in treating inflammatory disorders” (Janssen Pharmaceutica, N.V, priority 2003, dated 2007).

The target of one experiment is T1, human PLC-β2 (Homo sapiens, UniProt Q00722).
T1 construct: made in house; host or cells: Sf9 cells (Spodoptera frugiperda), recombinant baculovirus
T1 sequence (Q00722 whole entry): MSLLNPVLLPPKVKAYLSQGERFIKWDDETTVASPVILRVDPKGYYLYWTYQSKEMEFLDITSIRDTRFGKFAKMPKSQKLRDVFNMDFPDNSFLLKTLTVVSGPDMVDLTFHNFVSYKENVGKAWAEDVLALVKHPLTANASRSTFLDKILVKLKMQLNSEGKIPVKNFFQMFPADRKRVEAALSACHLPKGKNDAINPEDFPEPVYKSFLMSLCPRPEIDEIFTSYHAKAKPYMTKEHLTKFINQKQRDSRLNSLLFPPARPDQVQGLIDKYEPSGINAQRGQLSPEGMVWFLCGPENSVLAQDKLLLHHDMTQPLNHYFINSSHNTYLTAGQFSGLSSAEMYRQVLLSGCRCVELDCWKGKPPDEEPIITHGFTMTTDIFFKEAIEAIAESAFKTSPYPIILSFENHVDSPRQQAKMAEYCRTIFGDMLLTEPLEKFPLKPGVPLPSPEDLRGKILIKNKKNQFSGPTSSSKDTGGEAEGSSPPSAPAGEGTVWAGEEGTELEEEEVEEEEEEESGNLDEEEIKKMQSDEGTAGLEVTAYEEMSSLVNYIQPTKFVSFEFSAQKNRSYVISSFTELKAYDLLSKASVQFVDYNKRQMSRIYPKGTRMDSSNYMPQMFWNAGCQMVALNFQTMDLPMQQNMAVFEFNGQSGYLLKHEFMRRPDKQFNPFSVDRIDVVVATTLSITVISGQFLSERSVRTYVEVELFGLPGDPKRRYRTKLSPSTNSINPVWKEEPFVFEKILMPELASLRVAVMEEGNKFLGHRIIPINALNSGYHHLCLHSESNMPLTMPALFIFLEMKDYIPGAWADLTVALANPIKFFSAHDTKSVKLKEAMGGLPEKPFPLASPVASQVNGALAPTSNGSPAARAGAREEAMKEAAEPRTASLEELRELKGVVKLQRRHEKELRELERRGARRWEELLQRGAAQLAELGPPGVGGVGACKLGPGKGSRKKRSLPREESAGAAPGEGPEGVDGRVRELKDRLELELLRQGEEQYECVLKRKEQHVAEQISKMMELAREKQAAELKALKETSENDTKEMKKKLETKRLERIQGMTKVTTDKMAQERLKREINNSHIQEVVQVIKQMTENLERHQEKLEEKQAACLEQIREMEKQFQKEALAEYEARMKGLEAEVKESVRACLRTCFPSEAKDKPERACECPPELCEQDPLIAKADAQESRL
Description: PLC assay using FlashPlates (immobilized [3H]PIP2 substrate, 96-well). Type of experiment: biochemical. The settings on record: hydrolysis of immobilized [3H]PIP2; purified recombinant human PLC-β2 or cytosolic human PLC-β2. An excerpt:
The hydrolysis of phosphatidylinositol-4,5-bisphosphate (PIP2) by a specific phospholipase C-β2 (PLC-β2) produces two intracellular messengers, diacylglycerol (DAG) and inositol 1,4,5-trisphosphate (IP3), which mediate the activation of protein kinase C and intracellular Ca^2+ release. A conventional organic solvent extraction method is widely used for PLC assays to isolate IP3 from the substrate PIP2. The conventional PLC-β2 assay, however is terminated by addition of acidified organic solvents and subsequent extraction and phase separation. […] Accordingly, a preferred method to test the compounds of the present invention, was developed utilizing a 96-well plate assay for PLC-β2 using immobilized radiolabeled substrate to quantitatively measure the reduction in the substrate level without a need for organic solvent extraction. The automated PLC-β2 assay described herein provides a convenient method for quantitative measurement of phospholipase C activities in a high throughput fashion.
Ninety-six well Phospholipid FlashPlates were coated with 0.2 mL of 50 mM Tris/HCl (pH 7.4), 0.01% Ac-BSA and 50,000 cpm of ^[3H]PIP2 (phosphatidylinositol-4,5-bisphosphate) at 4° C. for 72 h. The wells were aspirated and washed twice with PBS. The reactions were conducted directly in the wells in PLC reaction buffer containing 50 mM Tris/HCl (pH 7.2), 2.75 mM EDTA (pH 7.3), 80 mM KCl, 10 mM LiCl, 0.04% DOC and 2 mM CaCl2 in the absence or presence of the purified recombinant human PLC-β2 (prepared as described hereafter) or cytosolic human PLC-β2 from […]. Reduction of radioactivity was monitored by a Packard TopCount instrument (Packard Instrument Company, Conn., USA).
Suspension cultures of Sf9 cells were maintained in a spinner flask at 27° C. and stirred at 90 rpm. The cells were grown in Grace's media supplemented with 10% (v/v) fetal bovine serum, 3.3 g/l yeastolate, 3.3 g/l lactalbumin hydrosylate, glutamine (6.4 mM final), 50 µg/ml gentamicin, and 50 μg/ml kanamycin. Suspension of Sf9 cells (1.0×10^6 cells/ml) were infected with 5 pfu/cell of recombinant baculovirus encoding PLC-β2 and incubated at 27° C. for 72 h. The cells were collected by centrifugation (500×g, 7 min, 4° C.) and disrupted by hypotonic lysis buffer containing 20 mM Tris/HCl, pH 7.4, 5 mM MgCl2, 2 mM EGTA, 200 βM PMSF, 200 βM benzamidine and 1 βM pepstatin A. The lysate was sonicated on ice and the nuclei and unbroken cells removed by centrifugation (500×g, 5 min, 4° C.). The supernatant was recovered and clarified by centrifugation (34,000 rpm, 60 min, 4° C.). The supernatant was used as a crude cytosolic fraction (Paterson, A., Boyer, J. L., Watts, V. J., Morris, A. J., Price, E. M., Harden, T. K. (1995) Concentration of enzyme-dependent activation of PLC β1 and PLC β2 by Gα11 and βγ subunits. Cellular Signalling 7, 709-720).
Crude cytosol prepared from Sf9 cells expressing PLC-β2 was purified initially by chromatography on a 10 ml column of Q-Sepharose FF, equilibrated in buffer A (25 mM HEPES, pH 7.2, 2 mM DTT, 2 mM EDTA, 2 mM EGTA, 200 μM PMSF, 200 μM benzamidine, 1 μM pepstatin A containing 10 mM NaCl). The column was washed with 20 ml of equilibration buffer and eluted with a 200-ml gradient of 110-410 mM NaCl in buffer A. The fractions containing PLC activity were pooled and diluted with buffer A. The diluted enzyme was applied to a 4 ml column of heparin-SepharoseCL-6B equilibrated in buffer A and the column washed with 70 ml of buffer A. The column was eluted with 80 ml of gradient of 0-1.0 M NaCl in buffer A, the column eluate collected in 3 ml fractions. […]
For orientation: IC50 means the concentration that inhibits the measured activity by half. As for `O=C(Nc1ccccc1)Nc1cc(CO)ccc1N1CCN(C(c2ccc(F)cc2)c2ccc(F)cc2)CC1` [Cpd 10, N-[2-[4-[bis(4-fluorophenyl)methyl]-1-piperazinyl]-5-(hydroxymethyl)phenyl]-N′-phenyl-urea], the IC50 was > 10 µM.

In the case of `Cc1ccc(C(=O)Nc2cc(C(=O)N3CCNCC3)ccc2N2CCN(C(c3ccccc3)c3ccccc3)CC2)cc1` [Cpd 1, N-[2-[4-(diphenylmethyl)-1-piperazinyl]-5-(1-piperazinylcarbonyl)phenyl]-4-methyl-benzamide], the IC50 came to 12.6 µM.

As to `Cc1ccc(S(=O)(=O)Nc2cc(C(=O)N3CCNCC3)ccc2N2CCN(C(c3ccccc3)c3ccccc3)CC2)cc1` [Cpd 5, N-[2-[4-(diphenylmethyl)-1-piperazinyl]-5-(1-piperazinylcarbonyl)phenyl]-4-methyl-benzenesulfonamide], the IC50 was determined as 10.8 µM.

As for `COC(=O)c1ccc(N2CCN(C(c3ccc(F)cc3)c3ccc(F)cc3)CC2)c(NC(=O)Nc2ccccc2)c1` [Cpd 11, 4-[4-[bis(4-fluorophenyl)methyl]-1-piperazinyl]-3-[[(phenylamino)carbonyl]amino]-benzoic acid methyl ester], the IC50 was > 10 µM.

Consider `CS(=O)(=O)Nc1cc(C(=O)N2CCNCC2)ccc1N1CCN(C(c2ccccc2)c2ccccc2)CC1` [Cpd 8, N-[2-[4-(diphenylmethyl)-1-piperazinyl]-5-(1-piperazinylcarbonyl)phenyl]-methanesulfonamide], for which the IC50 came to 9.8 µM.

`CCC(=O)Nc1cc(C(=O)N2CCNCC2)ccc1N1CCN(C(c2ccccc2)c2ccccc2)CC1` [Cpd 4, N-[2-[4-(diphenylmethyl)-1-piperazinyl]-5-(1-piperazinylcarbonyl)phenyl]-propanamide]: the IC50 is > 25 µM.

Consider `CS(=O)(=O)c1ccc(N2CCN(C(c3ccccc3)c3ccccc3)CC2)c(NC(=O)Nc2ccccc2)c1` [Cpd 9, N-[2-[4-(diphenylmethyl)-1-piperazinyl]-5-(methylsulfonyl)phenyl]-N′-phenyl-urea], for which the IC50 was > 10 µM.

As for `Cc1oc(-c2ccc(Cl)cc2)cc1C(=O)Nc1cc(C(=O)N2CCNCC2)ccc1N1CCN(C(c2ccccc2)c2ccccc2)CC1` [Cpd 2, 5-(4-chlorophenyl)-N-[2-[4-(diphenylmethyl)-1-piperazinyl]-5-(1-piperazinylcarbonyl)phenyl]-2-methyl-3-furancarboxamide], the IC50 was 17.4 µM.

In the case of `O=C(Nc1cc(C(=O)N2CCNCC2)ccc1N1CCN(C(c2ccccc2)c2ccccc2)CC1)c1ccco1` [Cpd 3, N-[2-[4-(diphenylmethyl)-1-piperazinyl]-5-(1-piperazinylcarbonyl)phenyl]-2-furancarboxamide], the IC50 came out at 21.6 µM.

As for `CCCCS(=O)(=O)Nc1cc(C(=O)N2CCNCC2)ccc1N1CCN(C(c2ccccc2)c2ccccc2)CC1` [Cpd 7, N-[2-[4-(diphenylmethyl)-1-piperazinyl]-5-(1-piperazinylcarbonyl)phenyl]-1-butanesulfonamide], the IC50 was > 25 µM.

`O=C(c1ccc(N2CCN(C(c3ccccc3)c3ccccc3)CC2)c(NS(=O)(=O)c2ccc(Cl)cc2)c1)N1CCNCC1` [Cpd 6, 4-chloro-N-[2-[4-(diphenylmethyl)-1-piperazinyl]-5-(1-piperazinylcarbonyl)phenyl]-benzenesulfonamide]: the IC50 is 8.7 µM.

The same experiment, now with this note: printed in brackets beside IC50 >10 μM; test concentration not stated.
The term inhibition denotes the drop in the measured response relative to a control, in per cent. Lower therefore signals a response near the control. As for `O=C(Nc1ccccc1)Nc1cc(CO)ccc1N1CCN(C(c2ccc(F)cc2)c2ccc(F)cc2)CC1` [Cpd 10, N-[2-[4-[bis(4-fluorophenyl)methyl]-1-piperazinyl]-5-(hydroxymethyl)phenyl]-N′-phenyl-urea], the inhibition at up to 10 µM stood at 47%.

`CS(=O)(=O)c1ccc(N2CCN(C(c3ccccc3)c3ccccc3)CC2)c(NC(=O)Nc2ccccc2)c1` [Cpd 9, N-[2-[4-(diphenylmethyl)-1-piperazinyl]-5-(methylsulfonyl)phenyl]-N′-phenyl-urea]: the inhibition at up to 10 µM was 60%.
